Laboratory results from patent publication US20170360013A1, “ANIMAL MODEL FOR DRY EYE AND METHODS OF USE OF SUCH ANIMALS” (REGENERON PHARMACEUTICALS, INC., priority 2014, published 2017).

Tests used:
[1] = system: C57BL/6 mice; experiment: Flow cytometry of extraorbital lacrimal glands (CD45+ immune cell infiltration); format: in vivo, mouse; settings: after 4 weeks of treatment; relative to controls
Method: (§1) Dry eye model induction: 27 adult, male C57BL/6 mice were randomized to naïve (untreated), sham (receiving surgery equivalent to surgery for implantation of pump, but without actual implantation of pump and without scopolamine or BAC treatment), benzalkonium chloride (BAC), scopolamine (Scop) or BAC plus Scop groups.
(§2) Implantation of scopolamine pump. For Scop group, mice were subcutaneously implanted with an osmotic pump filled with Scop (2 mg/20 g body weight/day) lasting for 4 weeks. Mice were anesthetized with ketamine (120 mg/kg, IP) and xylazine (5 mg/kg, IP). Using aseptic microsurgical technique and an operating microscope, a mini-osmotic pump was placed beneath the back skin, then the skin was sutured, and erythromycin ophthalmic ointment was applied to the wound to prevent infection.
(§3) Benzalkonium chloride treatment. For BAC treatment, 1 μl of 0.1-0.2% BAC was topically administrated on the right eye ocular surface, twice daily, 2 days per week, for four weeks.
Quantification of corneal angiogenesis, lymphangiogenesis and lacrimal gland infiltration. On day 28 after induction of dry eye, under deep ketamine (120 mg/kg, IP) and xylazine (5 mg/kg, IP) anesthesia, eyeballs were collected in 4% paraformaldehyde (PFA) for corneal angiogenesis and lymphangiogenesis studies. […]
Flow cytometry. […] Data was analyzed by FlowJo (Tree Star, Ashland, Oreg.).

[2] = system: C57BL/6 mice; experiment: Tear production measurement (phenol red thread) in dry eye model induction; format: in vivo, mouse; settings: over four weeks of administration; Scop 2 mg/20 g body weight/day by s.c. osmotic pump; BAC 1 μl of 0.1-0.2% topical, twice daily, 2 days per week; relative to controls or BAC alone; p<0.001
Method: as §1, §2, §3
Tear production measurement and corneal fluorescein staining score. Tear production and corneal fluorescein staining were performed once per week, on day 7, 14, 21, and 28. […] Five minutes after application, corneal fluorescein staining was scored under a microscope using the National Eye Institute (NEI) scoring standards.

Compound: benzalkonium chloride [BAC]
- percent of CD45+ cells in extraorbital lacrimal glands [1]: increased

Compound: CN1[C@@H]2C[C@@H](OC(=O)[C@H](CO)c3ccccc3)C[C@H]1[C@@H]1O[C@@H]12 [Scop, scopolamine]
- tear production [2]: significantly decreases
- percent of CD45+ cells in extraorbital lacrimal glands [1]: increased
